Patent US6653346B1, “Cytoprotective benzofuran derivatives” (Galileo Pharmaceuticals, Inc., priority 2002, dated 2003)

tested on: CRP in Hep3B cells; assay: Human Hep3B cells - CRP assay (CRP ELISA); assay type: cell-based; settings: 72 h, Hep3B cells stimulated with IL-1β, IL-6 and dexamethasone, three days, read-out: EC50 for reducing CRP levels
Source text: Hep3B Cell Line is obtained from the American Type Culture Collection (ATCC Catalog No. HB-8064). The Hep3B cell line was derived from liver tissue of […]. The cells are epithelial in morphology and produce tumors in nude mice. The cells produce α-fetoprotein, hepatitis B surface antigen, albumin, α-2-macroglobulin, α-1-antitrypsin, transferrin, plasminogen, complement C3 and β-lipoprotein (Knowles BB, et al., Science, 1980, 209:497-499). This cell line has been widely used to study hepatocyte cytokine and acute phase protein release (e.g., Damtew B, et al.,1993, J Immunol 150:4001-4007).
HEP3B cells are grown in Minimum Essential Medium (MEM; GIBCO) supplemented with 10% Fetal Bovine Serum (FBS; Hyclone), 1×Penicillin/Streptomycin (GIBCO, Cat #15140-122) and 0.1 mM non-essential amino acids (GIBCO, Catalog No. 11140-050). Cells are thawed and transferred to warm medium according to standard methods known in the art.
Cells are incubated in flasks at 37° C. with 5% CO2 in an air atmosphere incubator. HEP3B growth media is changed every 2 days until the cells reach 70-80% confluence (approx. 3-4 days). For assay, the cells are transferred to 96-well plates, seeded at 5000 cells per well in culture media, and left to grow for 7 days in a 37° C. incubator (air supplemented with 5% CO2). Media is replaced daily until assay. Test compounds are diluted into “Stimulus Buffer” (MEM medium containing 0.1 mM non-essential amino acids, 1×penicillin/streptomycin, 10% FBS with 10 ng/ml IL-1β, 20 ng/ml IL-6 and 1 μM dexamethasone. Media is removed from the cells and is replaced with 200 μl of test dilution. Cells are returned to the incubator for three days at 37° C. CRP ELISA is then performed on supernatant from the cells, as described below.
Costar EIA/RIA plates are coated with rabbit anti-human CRP (DAKO) diluted 1:4000 in carbonate buffer (100 μl/well) for 45 minutes at 37° C. Plates are then washed 5×with CRP washing buffer (50 mM Tris-HCl, 0.3M NaCl, […], pH 8.0) using an automatic plate washer. Plates may be dried, covered and refrigerated until use. Supernatant (100 μl) is removed from each well of the test plates and added to the corresponding well of a precoated ELISA plate.
100 μl HRP-conjugated rabbit anti-human CRP (DAKO) diluted 1:500 (in CRP wash buffer) is added to each well, followed by incubation for 30 minutes at 37° C. Plates are washed 5× with CRP washing buffer using the automatic plate washer. 200 μl of 3,3′,5,5′-Tetramethyl Benzidine (TMB) liquid Substrate System (Sigma, St. Louis, Mo.) is added to each well, followed by incubation in the dark for 15 minutes at room temperature. Finally, 50 μl of 1 M H2SO4 is added to each well and absorbance at 450 nm is immediately measured in a microtiter spectrophotometer.
CRP measured as above is normalized to cell count per well, using a cell viability assay, such as the Cell Tracker Green assay. To do this, the remainder of the medium is from the cell test plates, cells are washed with 200 μl of pre-warmed 1×Hanks Basic Salt Solution (HBSS; GIBCO), and 100 μL of 5 μM Cell Tracker Green (Molecular Probes, Eugene, Oreg.) is added to each well. Plates are then incubated at 37° C. for 30 minutes. Cells are then washed twice with prewarmed 1×HBSS. Plates are immediately read using a Fluoroskan® flourometer with a 485 excitation/538 emission filter pair.

Compound | EC50
CC(=O)c1oc2c(C)c(C)c(O)cc2c1Br [1-(3-Bromo-5-hydroxy-6,7-dimethyl-benzofuran-2-yl)-ethanone] | 10 to 40 µM
Cc1c(O)cc2cc(C(=O)CN3CCOCC3)oc2c1C [1-(5-Hydroxy-6,7-dimethyl-benzofuran-2-yl)-2-morpholin-4-yl-ethanone] | 10 to 40 µM
CC(=O)c1cc2cc(O)c(C)c(C)c2o1 [1-(5-Hydroxy-6,7-dimethyl-benzofuran-2-yl)ethanone] | 10 to 40 µM
Cc1c(O)cc2cc(C3(O)CN(C)CCO3)oc2c1C (stereo not shown) [2-(5-Hydroxy-6,7-dimethyl-benzofuran-2-yl)-4-methyl-morpholin-2-ol] | 10 to 40 µM
COc1ccc(-c2coc3c(C)c(C)c(O)cc23)cc1 [3-(4-Methoxy-phenyl)-6,7-dimethyl-benzofuran-5-ol] | 10 to 40 µM
Cc1c(C)c2occ(-c3ccccc3)c2c2c(-c3ccccc3)coc12 [4,5-Dimethyl-1,8-diphenyl-benzo[1,2-b;4,3-b′]difuran] | 10 to 40 µM
Cc1c(O)cc2c(-c3ccccc3)coc2c1C [6,7-Dimethyl-3-phenyl-benzofuran-5-ol] | 10 to 40 µM
